The values that follow come from US12492193B2, “Pyrazole derivatives for the treatment of cystic fibrosis” (Fondazione Istituto Italiano Di Tecnologia, priority 2017, dated 2025).

Bounds are passed on as bounds.

The target in the experiment is T1, mutant CFTR (Homo sapiens, UniProt P13569, DEL508-508).
T1 construct: expressed in transfected cells
Put plainly: Fluorescence (HS-YFP) assay for CFTR activity, corrector assay. It is filed as cell-based. The settings on record: CFBE41o- and FRT cells with stable expression of mutant CFTR, 24 h compound treatment. As to the method:
Fluorescence Assay for CFTR Activity
Mutant CFTR activity was determined with the functional assay based on the halide-sensitive yellow fluorescent protein, HS-YFP (Galietta et al., FEBS Lett 499: 220-224, 2001). CFBE41o- and FRT cells with stable expression of mutant CFTR and HS-YFP were plated on clear-bottom 96-well black microplates (Code 3603, Corning Life Sciences) at a density of 50,000 cells/well and kept at 37° C. in 5% CO2 for 24 hours. For the corrector assay, cells were treated for further 24 hours with test compounds, vehicle (DMSO), or the positive control VX-809. After treatment, the culture medium was removed and cells in each well were stimulated for 30 min at 37° C. with 60 μL PBS (containing 137 mM NaCl, 2.7 mM KCl, 8.1 mM Na2HPO4, 1.5 mM KH2PO4, 1 mM CaCl2, and 0.5 mM MgCl2) plus forskolin (20 μM) and genistein (50 μM).
For determination of potentiator activity on G551D-CFTR or G1349D-CFTR, cells were directly stimulated with forskolin plus test compound without previous incubation at low temperature. At the time of assay, microplates carrying CFBE41o- or FRT cells were transferred to microplate readers (BMG Labtech) equipped with high-quality excitation (HQ500/20X: 500±10 nm) and emission (HQ535/30M: 535±15 nm) filters for YFP (Chroma Technology). The assay consisted of a continuous 14 s fluorescence reading with 2 s before and 12 s after injection of an iodide-containing solution (165 μL of a modified PBS containing I^− instead of Cl^−; final I^− concentration in the well: 100 mM). Data were normalized to the initial background-subtracted fluorescence. Enhanced CFTR activity, induced by correctors and/or potentiators, results in accelerated I^− influx that in turn causes faster HS-YFP quenching (Pedemonte et al., Mol Pharmacol 68:1736-1746, 2005; Pedemonte et al., J Clin Invest 115:2564-2571, […]). To determine fluorescence quenching rate associated with I^− influx, the […] 10 s of data for each well were fitted with an exponential function to extrapolate initial slope (dF/dt).
EC50 obtained are illustrated in table 1 wherein +: EC50>2 μM; ++: 1.0 μM<EC50<2 μM; +++: EC50<1 μM.

T1 sequence (P13569 with tags, fused parts or gaps DEL508-508): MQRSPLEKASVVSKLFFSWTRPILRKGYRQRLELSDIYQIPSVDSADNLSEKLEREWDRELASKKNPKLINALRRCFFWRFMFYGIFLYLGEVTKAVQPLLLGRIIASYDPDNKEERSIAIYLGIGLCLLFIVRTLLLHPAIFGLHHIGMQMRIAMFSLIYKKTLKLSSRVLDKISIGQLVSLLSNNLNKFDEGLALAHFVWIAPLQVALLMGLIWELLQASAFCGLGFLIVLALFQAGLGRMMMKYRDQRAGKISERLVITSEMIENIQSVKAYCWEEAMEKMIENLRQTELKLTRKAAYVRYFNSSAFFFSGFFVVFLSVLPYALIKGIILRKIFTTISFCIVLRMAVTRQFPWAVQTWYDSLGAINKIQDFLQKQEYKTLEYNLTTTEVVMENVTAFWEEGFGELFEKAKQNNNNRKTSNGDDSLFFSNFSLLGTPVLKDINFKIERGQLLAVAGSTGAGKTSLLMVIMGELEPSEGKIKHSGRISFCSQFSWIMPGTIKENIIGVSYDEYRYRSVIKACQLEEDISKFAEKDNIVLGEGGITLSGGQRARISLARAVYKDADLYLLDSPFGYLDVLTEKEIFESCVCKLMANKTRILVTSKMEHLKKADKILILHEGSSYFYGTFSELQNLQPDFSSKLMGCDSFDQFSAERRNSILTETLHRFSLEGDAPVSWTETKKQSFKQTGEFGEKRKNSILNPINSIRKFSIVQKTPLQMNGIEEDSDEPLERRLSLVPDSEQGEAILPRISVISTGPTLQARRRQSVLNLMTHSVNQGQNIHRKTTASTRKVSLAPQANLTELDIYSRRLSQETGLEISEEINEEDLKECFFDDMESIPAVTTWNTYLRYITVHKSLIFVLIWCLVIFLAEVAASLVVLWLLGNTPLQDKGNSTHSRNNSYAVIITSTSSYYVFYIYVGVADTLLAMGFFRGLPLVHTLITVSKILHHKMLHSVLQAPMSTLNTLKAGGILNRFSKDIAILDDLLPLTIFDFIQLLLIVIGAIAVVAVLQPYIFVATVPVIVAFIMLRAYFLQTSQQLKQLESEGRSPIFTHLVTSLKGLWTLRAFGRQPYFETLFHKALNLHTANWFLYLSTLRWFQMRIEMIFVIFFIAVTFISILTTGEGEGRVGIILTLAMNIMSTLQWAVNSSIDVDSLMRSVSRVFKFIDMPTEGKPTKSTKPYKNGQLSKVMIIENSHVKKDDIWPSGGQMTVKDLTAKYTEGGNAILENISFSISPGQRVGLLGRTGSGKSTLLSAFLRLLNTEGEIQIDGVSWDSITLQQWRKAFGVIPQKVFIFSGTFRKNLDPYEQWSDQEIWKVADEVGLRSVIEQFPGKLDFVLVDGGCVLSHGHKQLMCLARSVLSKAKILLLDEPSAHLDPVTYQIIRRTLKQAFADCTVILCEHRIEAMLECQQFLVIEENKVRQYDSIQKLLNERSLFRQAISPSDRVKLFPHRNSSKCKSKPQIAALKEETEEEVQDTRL

Regarding `Cc1nn(-c2cccc(C(=O)N(C)c3ccc4c(c3)OC(F)(F)C(F)(F)O4)c2)c(C)c1Cl` [compound 008, 3-(4-Chloro-3,5-dimethyl-pyrazol-1-yl)-N-methyl-N-(2,2,3,3-tetrafluoro-1,4-benzodioxin-6-yl)benzamide], the EC50 – broadly, the concentration needed to bring the measured effect to its halfway point – was above 2000 nM.

Regarding `CN(C(=O)c1cccc(-n2cccn2)c1)c1ccc2c(c1)OCCO2` [compound 010, N-(2,3-Dihydro-1,4-benzodioxin-6-yl)-N-methyl-3-pyrazol-1-yl-benzamide], the EC50 was above 2000 nM. With `Cc1cc(C)n(-c2cccc(C(=O)N(C)c3ccc4c(c3)OCCO4)c2)n1` [compound 011, N-(2,3-Dihydro-1,4-benzodioxin-6-yl)-3-(3,5-dimethylpyrazol-1-yl)-N-methyl-benzamide] the figure was above 2000 nM. With `COc1ccc(N(C)C(=O)c2cccc(-n3nc(C)c(Cl)c3C)c2)cc1OC` [compound 014, 3-(4-Chloro-3,5-dimethyl-pyrazol-1-yl)-N-(3,4-dimethoxyphenyl)-N-methyl-benzamide] the figure was above 2000 nM; with `Cc1nn(-c2cccc(C(=O)N(C)c3ccc4c(c3)OCO4)c2)c(C)c1Cl` [compound 015, N-(1,3-Benzodioxol-5-yl)-3-(4-chloro-3,5-dimethyl-pyrazol-1-yl)-N-methyl-benzamide], below 1000 nM. With `Cc1cc(C)n(-c2cccc(S(=O)(=O)N(C)c3ccc4c(c3)OCCO4)c2)n1` [compound 017, N-(2,3-dihydro-1,4-benzodioxin-6-yl)-3-(3,5-dimethylpyrazol-1-yl)-N-methyl-benzenesulfonamide], the EC50 was above 2000 nM. With `CCN(C(=O)c1cccc(-n2nc(C)c(Cl)c2C)c1)c1ccc2c(c1)OC(F)(F)O2` [compound 019, 3-(4-Chloro-3,5-dimethyl-pyrazol-1-yl)-N-(2,2-difluoro-1,3-benzodioxol-5-yl)-N-ethyl-benzamide] the figure was 1000 to 2000 nM; with `Cc1nn(-c2cccc(S(=O)(=O)N(C)c3ccc4c(c3)OCCO4)c2)c(C)c1Cl` [compound 020, 3-(4-chloro-3,5-dimethyl-pyrazol-1-yl)-N-(2,3-dihydro-1,4-benzodioxin-6-yl)-N-methyl-benzenesulfonamide], 1000 to 2000 nM; with `COc1ccc(N(C)C(=O)c2cccc(-n3nc(C)c(Cl)c3C)c2)cn1` [compound 021, 3-(4-Chloro-3,5-dimethyl-pyrazol-1-yl)-N-(6-methoxy-3-pyridyl)-N-methyl-benzamide], above 2000 nM. For the compound `Cc1nn(-c2cccc(C(=O)N(C)c3ccc4c(c3)CCC4)c2)c(C)c1Cl` [compound 023, 3-(4-chloro-3,5-dimethyl-pyrazol-1-yl)-N-indan-5-yl-N-methyl-benzamide], the EC50 was below 1000 nM. Consider `Cc1nn(-c2cccc(C(=O)N(C)c3ccc4c(c3)ncn4C)c2)c(C)c1Cl` [compound 024, 3-(4-Chloro-3,5-dimethyl-pyrazol-1-yl)-N-methyl-N-(1-methylbenzimidazol-5-yl)benzamide], for which the EC50 is above 2000 nM. For the compound `Cc1nc2cc(N(C)C(=O)c3cccc(-n4nc(C)c(Cl)c4C)c3)ccc2o1` [compound 025, 3-(4-Chloro-3,5-dimethyl-pyrazol-1-yl)-N-methyl-N-(2-methyl-1,3-benzoxazol-5-yl)benzamide], the EC50 is above 2000 nM.

On to `Cc1nn(-c2cccc(C(=O)N(C)c3cccc4c3OC(F)(F)O4)c2)c(C)c1Cl` [compound 026, 3-(4-Chloro-3,5-dimethyl-pyrazol-1-yl)-N-(2,2-difluoro-1,3-benzodioxol-4-yl)-N-methyl-benzamide], for which the EC50 is above 2000 nM.

As for `Cc1nn(-c2cccc(C(=O)N(C)c3ccc4ocnc4c3)c2)c(C)c1Cl` [compound 029, N-(1,3-Benzoxazol-5-yl)-3-(4-chloro-3,5-dimethyl-pyrazol-1-yl)-N-methyl-benzamide], the EC50 is above 2000 nM. Take `Cc1nn(-c2cccc(C(=O)N(c3ccc4c(c3)OCCO4)C3CC3)c2)c(C)c1Cl` [compound 030, 3-(4-Chloro-3,5-dimethyl-pyrazol-1-yl)-N-cyclopropyl-N-(2,3-dihydro-1,4-benzodioxin-6-yl)benzamide]: the EC50 was above 2000 nM. Consider `Cc1ccc(-n2nc(C)c(Cl)c2C)cc1C(=O)N(C)c1ccc2c(c1)OCCO2` [compound 031, 5-(4-chloro-3,5-dimethyl-pyrazol-1-yl)-N-(2,3-dihydro-1,4-benzodioxin-6-yl)-N, 2-dimethyl-benzamide], for which the EC50 was above 2000 nM. As to `Cc1nn(-c2cccc(C(=O)N(C)c3cc4c(cc3Cl)OCCO4)c2)c(C)c1Cl` [compound 032, N-(6-chloro-2,3-dihydro-1,4-benzodioxin-7-yl)-3-(4-chloro-3,5-dimethyl-pyrazol-1-yl)-N-methyl-benzamide], the EC50 is below 1000 nM. As for `CN(C(=O)c1cccc(-n2cc(Cl)cn2)c1)c1ccc2c(c1)OCCO2` [compound 033, 3-(4-Chloropyrazol-1-yl)-N-(2,3-dihydro-1,4-benzodioxin-6-yl)-N-methyl-benzamide], the figure is above 2000 nM. As for `Cc1nn(-c2cccc(C(=O)N(C)c3ccc4c(c3)OC(C)(C)O4)c2)c(C)c1Cl` [compound 034, 3-(4-Chloro-3,5-dimethyl-pyrazol-1-yl)-N-(2,2-dimethyl-1,3-benzodioxol-5-yl)-N-methyl-benzamide], the figure is above 2000 nM. As for `Cc1nn(-c2cccc(S(=O)(=O)N(C)c3ccc4c(c3)OC(F)(F)O4)c2)c(C)c1Cl` [compound 035, 3-(4-Chloro-3,5-dimethyl-pyrazol-1-yl)-N-(2,2-difluoro-1,3-benzodioxol-5-yl)-N-methyl-benzenesulfonamide], the EC50 is above 2000 nM. For `Cc1nn(-c2cccc(C(=O)N(C)c3ccc4c(c3)OCCN4)c2)c(C)c1Cl` [compound 036, 3-(4-Chloro-3,5-dimethyl-pyrazol-1-yl)-N-(3,4-dihydro-2H-1,4-benzoxazin-4-ium-7-yl)-N-methyl-benzamide 2,2,2-trifluoroacetate], the EC50 is above 2000 nM. As for `Cc1nn(-c2cccc(C(=O)N(C)c3ccc4c(c3)OCCO4)c2)c(C)c1C(C)(C)C` [compound 037, 3-(4-tert-Butyl-3,5-dimethyl-pyrazol-1-yl)-N-(2,3-dihydro-1,4-benzodioxin-6-yl)-N-methyl-benzamide], the figure is 1000 to 2000 nM; as for `Cc1nn(-c2cccc(C(=O)N(C)c3ccc4c(c3)NCCO4)c2)c(C)c1Cl` [compound 038, 3-(4-Chloro-3,5-dimethyl-pyrazol-1-yl)-N-(3,4-dihydro-2H-1,4-benzoxazin-4-ium-6-yl)-N-methyl-benzamide 2,2,2-trifluoroacetate], above 2000 nM. With `[2H]C([2H])([2H])N(C(=O)c1cccc(-n2nc(C)c(Cl)c2C)c1)c1ccc2c(c1)OC(F)(F)O2` [compound 039, 3-(4-Chloro-3,5-dimethyl-pyrazol-1-yl)-N-(2,2-difluoro-1,3-benzodioxol-5-yl)-N-(trideuteriomethyl) benzamide], the EC50 is 1000 to 2000 nM.

For `Cc1cc2c(cc1N(C)C(=O)c1cccc(-n3nc(C)c(Cl)c3C)c1)OCO2` [compound 042, 3-(4-chloro-3,5-dimethyl-pyrazol-1-yl)-N-methyl-N-(6-methyl-1,3-benzodioxol-5-yl)benzamide], the EC50 lay in the range of 1000 to 2000 nM. Take `CCOC(=O)c1c(C)nn(-c2cccc(C(=O)N(C)c3ccc4c(c3)OCO4)c2)c1C` [compound 043, Ethyl 1-[3-[1,3-benzodioxol-5-yl(methyl)carbamoyl]phenyl]-3,5-dimethyl-pyrazole-4-carboxylate]: the EC50 was above 2000 nM. With `Cc1nn(-c2cccc(C(=O)N(C)c3ccc4c(c3)CCCC4)c2)c(C)c1Cl` [compound 044] the figure was above 2000 nM; with `Cc1nc2ccc(N(C)C(=O)c3cccc(-n4nc(C)c(Cl)c4C)c3)cc2o1` [compound 047, 3-(4-Chloro-3,5-dimethyl-pyrazol-1-yl)-N-methyl-N-(2-methyl-1,3-benzoxazol-6-yl)benzamide], below 1000 nM. As to `Cc1nn(-c2cccc(C(=O)N(C)c3ccc4c(c3)OCO4)c2)c(C)c1C(=O)O` [compound 048, 1-[3-[1,3-Benzodioxol-5-yl(methyl)carbamoyl]phenyl]-3,5-dimethyl-pyrazole-4-carboxylic acid], the EC50 is above 2000 nM. With `Cc1nn(-c2cccc(C(=O)N(C)c3cc4c(cc3Cl)OC(F)(F)O4)c2)c(C)c1Cl` [compound 049, N-(6-Chloro-2,2-difluoro-1,3-benzodioxol-5-yl)-3-(4-chloro-3,5-dimethyl-pyrazol-1-yl)-N-methyl-benzamide] the figure was below 1000 nM.
